How the values were obtained:
[1] = tested on: heparinized human whole blood; test: Activated clotting time (ACT) in heparinized human whole blood; assay type: cell-based; conditions: 1.4 Units/mL heparin; varying concentrations; FIG. 1
Description: This process can be used to calculate a standardized concentration curve for various known concentrations of anti-platelet compounds. The process can also be used to measure activated clotting times for use in calculating the ACT number for the processes of the invention.
A. Blood was drawn from a human volunteer into a syringe containing heparin. The heparin to whole blood ratio was 1:10 such that the final concentration of heparin in the syringe was 1.4 Units/mL.
B. The Hemochron™-8000 was set up to run ACT using the P-215 tubes from the same manufacturer (International Technidyne).
A. A 1 mL sample of the above heparinized blood was admixed and maintained (incubated) with 2.5-10 μl of antagonist compound or saline for 5 minutes at room temperature.
B. The Hemochron™ was started as 400 μl of the test sample was pipetted into the P-215 tube. The tube contents were gently mixed, placed into the Hemochron™ and turned one revolution until the light on the instrument came on.
C. Step B was repeated for the second channel of the instrument within 30 seconds to give an average activated clotting time. […]
The activated clotting time was first measured (in seconds) for control whole blood from each donor containing only 1.4 Units/mL of heparin. The clotting times were then measured as in Example 1 by varying concentrations of antiplatelet compounds B and D in addition to heparin for each donor. […]

[2] = Total and free plasma levels of compound B in dog (HPLC); assay type: in vivo; conditions: throughout the three bolus infusions of Mab 9F7, FIG. 11
Method: In a second study, a dog was treated with a capsule of 10 mg of compound A, BID for 4 days (15 mg on day 3) prior to antibody testing. […] Four hours after the last oral dose of compound A, a dose of pentobarbitol and the monoclonal […] antibody (P187-9F7) was infused by a i.v. bolus injection. Each bolus contained a 5-fold molar excess over drug plasma levels (about 50 mg of Mab 9F7). A control dog was given identical amounts of antibody without compound A oral dosing. Blood samples were collected for aggregation assays at 5, 15, 30 and 60 minutes after each bolus administration of antibody, plasma levels of Mab 9F7, and total and free plasma levels of compound B.
This method involves the extraction of compound B and an internal standard (compound F, shown hereinafter) from acidified dog plasma with a C18 solid phase extraction column. Analysis is by reverse phase high performance liquid chromatography with fluorescence detection. […] Quality control pools were prepared in dog plasma and quantified using the human calibration curve. A linear weighted (1/concentration squared) least squares regression analysis was used to quantify samples. This method was validated with a minimum quantifiable level of 1.00 ng/mL. […]
Removed the samples to be analyzed from the freezer and thawed. […] The filtrate was then analyzed by the method given below. […]

[3] = Elimination of compounds B and D from the circulation; assay type: in vivo; conditions: for Route of removal from the circulation: in vivo; for Change in elimination half-life with decreased creatinine clearance: renal impairment
Description: In renally impaired patients, reversal of the functionality of these compounds would be especially useful in an emergency situation where rapid removal of active compound is desired.

[4] = Plasma half-life of compound B in guinea pig; assay type: in vivo
Method: Therefore, follow-up studies were conducted in dogs because the half-life of compounds B in this species is more similar to the human half-life than is the half-life in the guinea pig.
The half life of compound B was determined by fitting the plasma concentrations and determining the elimination rate constant ke. The half-life is calculated as t½=0.693/ke.

platelet aggregation = tested on: platelet aggregation; design: dose or concentration left out as unconfirmed; conditions: anesthetized dogs; for up to 210 minutes; cited from earlier work
GPIIb/IIIa = GPIIb/IIIa (Homo sapiens, UniProt P05106+P08514); conditions: when administered; cited from earlier work

| Levels of total compound B (free plus antibody bound) [2] | Route of removal from the circulation [3] | Change in elimination half-life with decreased creatinine clearance [3] | Half-life [4] | Compound | Effect of antiplatelet compound concentration on activated clotting time [1] | Inhibition of platelet aggregation, measured ex vivo (platelet aggregation) | Effect on activated clotting times (GPIIb/IIIa) |
| --- | --- | --- | --- | --- | --- | --- | --- |
| increased throughout the three infusions | almost exclusively by the kidney | appreciable increases | short half-life | C#C[C@H](CC(=O)O)NC(=O)CCC(=O)Nc1ccc(C(=N)N)cc1 [compound B, 3S-[[4-[[4-(aminoiminomethyl)phenyl]amino]-1,4-dioxobutyl]amino]-4-pentynoic acid] | directly affect the activated clotting time |  |  |
|  | almost exclusively by the kidney | appreciable increases |  | N=C(N)c1ccc(N2CC[C@H](NC(=O)NCCC(=O)O)C2=O)cc1 [compound D, 3-[[[[1-[4-(aminoiminomethyl)phenyl]-2-oxo-pyrrolidin-3S-yl]amino]carbonyl]amino]propanoic acid] | directly affect the activated clotting time |  |  |
|  |  |  |  | cyclic [D-2-aminobutyryl-N2-methyl-L-arginyl-glycyl-L-aspartyl-3-aminomethyl-benzoic acid] methanesulfonic acid salt [DMP728] |  | nearly complete inhibition |  |
|  |  |  |  | C7E3: anti-GPIIb/IIIa antibody (Centocor) |  |  | increase of activated clotting times |

From patent publication US20030118584A1, “Restoration of platelet aggregation by antibody administration after GPIIB/IIIa antagonist treatment” (G.D. Searle & Co., priority 1998, published 2003)
